Usually EC50 stands for the concentration that produces a half-maximal response. A higher EC50 goes with a need for much substance. A word on the CC50: it is the concentration giving 50% cytotoxicity. The low end stands for harm at low concentration, the high end for better tolerance by the cells. The term half-life denotes how long it takes for the measured level to halve. A high value points to slow decline. By clearance is commonly meant a measure of how efficiently the substance is removed, as volume per time. By Cmax is commonly meant the highest concentration seen after dosing. What is called bioavailability is the share of a dose that reaches the circulation, judged against a reference dose that is usually intravenous. The low end stands for poor availability, the high end for good availability.

This is an account of results in ChEMBL document CHEMBL2311440, “Inhibitors of HIV-1 attachment. Part 8: the effect of C7-heteroaryl substitution on the potency, and in vitro and in vivo profiles of indole-based inhibitors” (Bioorg Med Chem Lett, 2013).

The test system of data set [1] is Human immunodeficiency virus 1. The experiment in a line: Antiviral activity against HIV1 JRFL pseudotyped virus infected in HeLa CD4+ CCR5+ cells by single-cycle viral infectivity assay. The data set is classed as functional, organism-based. Conditions: Human immunodeficiency virus 1, JRFL.
Data set [2] can be described thus: Cytotoxicity against human HeLa CD4+ CCR5+ cells after 6 days by XTT assay. The data set is classed as cell-based. On the technique in general: Tetrazolium dyes change colour on reduction, which living cells bring about.
The nature of data set [3]: Half life in human liver microsomes. The data set is classed as ADME, Microsome.
A short description of data set [4]: Clearance in rat at 1 mg/kg, iv. The data set is classed as ADME, organism-based. Also noted: dose 1 mg/kg, route intravenous. Conditions: in vivo.
The subject of data set [5] is Human immunodeficiency virus 1. Kind of data set: Antiviral activity against T-tropic HIV1 NL4-3 virus by cell culture based assay. The data set is classed as functional, organism-based. Conditions: Human immunodeficiency virus 1, NL4-3.
Data set [6] in a line: Safety index, ratio fo CC50 for human HeLa CD4+ CCR5+ cells to EC50 for HIV1 JRFL. The following applies: read-out: Ratio CC50/EC50. The data set is classed as toxicity.
The subject of data set [7] is Human immunodeficiency virus 1. Kind of data set: Antiviral activity against M-tropic HIV1 Bal virus by cell culture based assay. The data set is classed as functional, organism-based. The following applies: Human immunodeficiency virus 1, Bal.
Data set [8] is described as follows: Antiviral activity against T-tropic HIV1 BRU virus by cell culture based assay. The following applies: Human immunodeficiency virus 1. The data set is classed as functional, Human immunodeficiency virus type 1 (BRU ISOLATE).
The nature of data set [9]: Half life in rat at 1 mg/kg, iv. The format is ADME, organism-based. Also noted: dose 1 mg/kg, route intravenous. The following applies: in vivo.
Data set [10] in a line: Cmax in rat at 5 mg/kg, po. The data set is classed as ADME, organism-based. Details: dose 5 mg/kg, route oral. Conditions: in vivo.
The nature of data set [11]: Permeability across human Caco2 cells at pH 6.5. The data set is classed as ADME, cell-based. The following applies: Caco-2, pH 6.5, read-out: permeability. For orientation: Caco-2 monolayers are a common model of the intestinal barrier.
The nature of data set [12]: Oral bioavailability in rat at 5 mg/kg. The data set is classed as ADME, organism-based. Conditions: in vivo.

Each structure is given as a SMILES string.

As for `O=C(C(=O)N1CCN(C(=O)c2ccccc2)CC1)c1c[nH]c2c(-c3ccccc3)ccc(F)c12`, in [1], the EC50 was found to be 0.43 nM. This molecule also showed a CC50 at 144 h in [2] of 6.8 µM.

With `O=C(C(=O)N1CCN(C(=O)c2ccccc2)CC1)c1c[nH]c2c(-c3nc4ccccc4[nH]3)ccc(F)c12`, in data set [1], the EC50 stood at 0.53 nM. It took 11 µM to reach half-maximal cytotoxicity in data set [2] (CC50 at 144 h).

In [1], `Cc1nc(-c2ccc(F)c3c(C(=O)C(=O)N4CCN(C(=O)c5ccccc5)CC4)c[nH]c23)no1` had an EC50 of 0.06 nM. The molecule also showed a CC50 at 144 h in data set [2] of 226 µM.

As for `CC(=O)Nc1nc(-c2ccc(F)c3c(C(=O)C(=O)N4CCN(C(=O)c5ccccc5)CC4)c[nH]c23)no1`, the response in data set [1] was half-maximal at 0.1 nM (EC50). Moreover, in [2], the CC50 at 144 h was 229 µM.

For `O=C(C(=O)N1CCN(C(=O)c2ccccc2)CC1)c1c[nH]c2c(-c3ncon3)ccc(F)c12`, the half-life amounted to 17 min in data set [3] and 120 min in [9]. The clearance in data set [4] was found to be 3.9 mL/min/kg. Further, the EC50 in data set [5] amounted to 8.66 nM; in data set [7], 7.61 nM; in data set [1], 0.05 nM; in data set [8], 3.38 nM. Moreover, in data set [6], the selectivity ratio worked out at 1500. Besides, in data set [2], the CC50 at 144 h worked out at 74 µM. In data set [10], this molecule displayed a Cmax of 2610 ng/mL. The Papp in data set [11] is above 30 ×10⁻⁶ cm/s. This molecule showed a bioavailability in [12] of 89%.

As for `O=C(C(=O)N1CCN(C(=O)c2ccccc2)CC1)c1c[nH]c2c(-c3cnco3)ccc(F)c12`, the half-life in data set [3] is 2.9 min; in data set [9], 65 min. For the same molecule, the clearance in [4] came out at 17 mL/min/kg. Also, in [1], the EC50 worked out at 0.0054 nM. The molecule further showed a CC50 at 144 h in data set [2] above 300 µM. In data set [10], this molecule returned a Cmax of 444 ng/mL. The Papp in data set [11] is 12.2 ×10⁻⁶ cm/s. Besides, in data set [12], the bioavailability came to 47%.

The molecule `O=C(C(=O)N1CCN(C(=O)c2ccccc2)CC1)c1c[nH]c2ccccc12` displayed an EC50 in data set [1] of 153 nM. The molecule further showed a CC50 at 144 h in data set [2] of 275 µM.

In the case of `Cc1noc(-c2ccc(F)c3c(C(=O)C(=O)N4CCN(C(=O)c5ccccc5)CC4)c[nH]c23)n1`, the EC50 in [1] was 0.094 nM. The CC50 at 144 h in data set [2] is above 300 µM.

On to `O=C(C(=O)N1CCN(C(=O)c2ccccc2)CC1)c1c[nH]c2c(-c3ncco3)ccc(F)c12`, for which, in data set [1], the EC50 came to 0.05 nM. The CC50 at 144 h in data set [2] was determined as 192 µM.

As to `COc1ccc(-c2ncon2)c2[nH]cc(C(=O)C(=O)N3CCN(C(=O)c4ccccc4)CC3)c12`, the half-life in data set [3] was found to be 16 min. Moreover, the EC50 in data set [1] was 0.16 nM. Further, the 50% cytotoxic concentration (CC50) at 144 h in data set [2] is 22 µM. In data set [11], the Papp was found to be 14.8 ×10⁻⁶ cm/s.

`CN(C)c1nc(-c2ccc(F)c3c(C(=O)C(=O)N4CCN(C(=O)c5ccccc5)CC4)c[nH]c23)no1` came in with an EC50 in [1] of 0.3 nM. This molecule gave a CC50 at 144 h in data set [2] of 23 µM.

With `O=C(C(=O)N1CCN(C(=O)c2ccccc2)CC1)c1c[nH]c2c(-c3nnco3)ccc(F)c12`, the half-life in data set [3] was 10 min. For the same molecule, the EC50 in data set [1] came to 0.05 nM. This molecule also displayed a CC50 at 144 h in [2] above 300 µM.

`O=C(C(=O)N1CCN(C(=O)c2ccccc2)CC1)c1c[nH]c2c(-c3nnc[nH]3)ccc(F)c12`: the half-life in [3] came to 32 min; in data set [9] it was 187 min. The clearance in data set [4] stood at 3.7 mL/min/kg. This molecule gave an EC50 in [1] of 0.03 nM. This molecule also yielded a CC50 at 144 h in [2] of 199 µM. Moreover, in data set [10], the Cmax amounted to 369 ng/mL. Moreover, the Papp in data set [11] worked out at 1.9 ×10⁻⁶ cm/s. In data set [12], this molecule yielded a bioavailability of 14%.

Consider `CNc1nc(-c2ccc(F)c3c(C(=O)C(=O)N4CCN(C(=O)c5ccccc5)CC4)c[nH]c23)no1`, for which the EC50 in [1] was found to be 0.04 nM. In data set [2], this molecule registered a CC50 at 144 h of 26 µM.

Consider `O=C(C(=O)N1CCN(C(=O)c2ccccc2)CC1)c1c[nH]c2c(-c3nc4ccccc4o3)ccc(F)c12`, for which, in data set [1], the half-maximal effective concentration (EC50) was 0.88 nM. In data set [2], this molecule gave a CC50 at 144 h of 27 µM.

`O=C(C(=O)N1CCN(C(=O)c2ccccc2)CC1)c1c[nH]c2c(-c3cccs3)ccc(F)c12` gave an EC50 in data set [1] of 0.06 nM. In data set [2], this molecule returned a CC50 at 144 h of 5.3 µM.

For the molecule `C[C@@H]1CN(C(=O)c2ccccc2)CCN1C(=O)C(=O)c1c[nH]c2c(-c3nn[nH]n3)ccc(F)c12`, the half-life in [3] is above 100 min. Further, the concentration giving a half-maximal response (EC50) in data set [1] worked out at 0.07 nM. The molecule further yielded a CC50 at 144 h in data set [2] above 300 µM. Further, the Papp in data set [11] is below 1.5 ×10⁻⁶ cm/s.

As to `COc1ccc(-c2ccc(F)c3c(C(=O)C(=O)N4CCN(C(=O)c5ccccc5)CC4)c[nH]c23)cc1`, in [1], the EC50 was determined as 0.04 nM. The molecule further displayed a CC50 at 144 h in data set [2] of 21 µM.

`O=C(C(=O)N1CCN(C(=O)c2ccccc2)CC1)c1c[nH]c2c(-c3ccccn3)ccc(F)c12` displayed a half-maximal effective concentration (EC50) in [1] of 0.12 nM. In [2], the CC50 at 144 h worked out at 17 µM.

The molecule `COc1nc(-c2ccc(F)c3c(C(=O)C(=O)N4CCN(C(=O)c5ccccc5)CC4)c[nH]c23)no1` showed an EC50 in data set [1] of 3.55 nM. The molecule also displayed a CC50 at 144 h in data set [2] of 44 µM.

Take `O=C(C(=O)N1CCN(C(=O)c2ccccc2)CC1)c1c[nH]c2c(-c3cccnc3)ccc(F)c12`: in data set [1], it took 0.06 nM to reach a half-maximal effect (EC50). The CC50 at 144 h in data set [2] turned out to be 10 µM.

In turn, `Nc1nc(-c2ccc(F)c3c(C(=O)C(=O)N4CCN(C(=O)c5ccccc5)CC4)c[nH]c23)no1` yielded a half-life in data set [3] of 17 min. The molecule further registered an EC50 in [1] of 0.0082 nM. Besides, the CC50 at 144 h in data set [2] turned out to be 43 µM. Further, the Papp in data set [11] amounted to 6.9 ×10⁻⁶ cm/s.

As to `C[C@@H]1CN(C(=O)c2ccccc2)CCN1C(=O)C(=O)c1c[nH]c2c(-c3ncon3)ccc(F)c12`, in data set [1], the EC50 was 0.04 nM. Also, it took 125 µM to reach half-maximal cytotoxicity in data set [2] (CC50 at 144 h).

In data set [3], `O=C(C(=O)N1CCN(C(=O)c2ccccc2)CC1)c1c[nH]c2c(-c3cnc[nH]3)ccc(F)c12` yielded a half-life of 16 min. For the same molecule, the EC50 in data set [1] worked out at 0.06 nM. The CC50 at 144 h in data set [2] was above 300 µM. Further, the Papp in [11] was found to be 3.7 ×10⁻⁶ cm/s.

As to `NC(=O)c1nc(-c2ccc(F)c3c(C(=O)C(=O)N4CCN(C(=O)c5ccccc5)CC4)c[nH]c23)no1`, the midpoint of the response in [1], the EC50, lay at 0.1 nM. In addition, the CC50 at 144 h in [2] worked out at 154 µM.

As for `O=C(C(=O)N1CCN(C(=O)c2ccccc2)CC1)c1c[nH]c2c(-c3nn[nH]n3)ccc(F)c12`, the half-life in [3] is above 200 min; in data set [9] it was 67 min. In [4], this molecule displayed a clearance of 3.1 mL/min/kg. The EC50 in [5] stood at 9.41 nM; in data set [7], 0.37 nM; in data set [1] it was 0.08 nM; in data set [8] it was 6.38 nM. In [2], this molecule came in with a CC50 at 144 h of 245 µM. This molecule also returned a Cmax in data set [10] of 95 ng/mL. Further, the Papp in [11] worked out at 1.7 ×10⁻⁶ cm/s. For the same molecule, in [12], the bioavailability turned out to be 2.3%.

The molecule `O=C(C(=O)N1CCN(C(=O)c2ccccc2)CC1)c1c[nH]c2cccc(F)c12` yielded a half-life in data set [3] above 100 min. Moreover, the EC50 stood at 1500 nM in data set [5], 700 nM in data set [7], 1.24 nM in data set [1] and 90 nM in data set [8]. Also, the CC50 at 144 h in [2] is above 300 µM.

In [1], `O=C(C(=O)N1CCN(C(=O)c2ccccc2)CC1)c1c[nH]c2c(-c3nccs3)ccc(F)c12` returned an EC50 of 0.0067 nM. The same molecule came in with a CC50 at 144 h in data set [2] of 23 µM.

`O=C(C(=O)N1CCN(C(=O)c2ccccc2)CC1)c1c[nH]c2c(-c3ccsc3)ccc(F)c12`: the response in [1] was half-maximal at 0.01 nM (EC50). Besides, the CC50 at 144 h in [2] was determined as 27 µM.

With `Cc1nnc(-c2ccc(F)c3c(C(=O)C(=O)N4CCN(C(=O)c5ccccc5)CC4)c[nH]c23)[nH]1`, in data set [3], the half-life is 25 min. In data set [1], this molecule had an EC50 of 0.16 nM. The molecule also registered a CC50 at 144 h in data set [2] of 159 µM. For the same molecule, in data set [11], the Papp came to 8.9 ×10⁻⁶ cm/s.
